The record followed here is patent publication US11795171B2, “Pyrrolotriazinones and imidazotriazinones as ubiquitin-specific protease 7 inhibitors” (Valo Health, Inc., priority 2014, dated 2023).

Bounds are passed on as bounds.

Sequence of USP7 (Q93009 208-1102): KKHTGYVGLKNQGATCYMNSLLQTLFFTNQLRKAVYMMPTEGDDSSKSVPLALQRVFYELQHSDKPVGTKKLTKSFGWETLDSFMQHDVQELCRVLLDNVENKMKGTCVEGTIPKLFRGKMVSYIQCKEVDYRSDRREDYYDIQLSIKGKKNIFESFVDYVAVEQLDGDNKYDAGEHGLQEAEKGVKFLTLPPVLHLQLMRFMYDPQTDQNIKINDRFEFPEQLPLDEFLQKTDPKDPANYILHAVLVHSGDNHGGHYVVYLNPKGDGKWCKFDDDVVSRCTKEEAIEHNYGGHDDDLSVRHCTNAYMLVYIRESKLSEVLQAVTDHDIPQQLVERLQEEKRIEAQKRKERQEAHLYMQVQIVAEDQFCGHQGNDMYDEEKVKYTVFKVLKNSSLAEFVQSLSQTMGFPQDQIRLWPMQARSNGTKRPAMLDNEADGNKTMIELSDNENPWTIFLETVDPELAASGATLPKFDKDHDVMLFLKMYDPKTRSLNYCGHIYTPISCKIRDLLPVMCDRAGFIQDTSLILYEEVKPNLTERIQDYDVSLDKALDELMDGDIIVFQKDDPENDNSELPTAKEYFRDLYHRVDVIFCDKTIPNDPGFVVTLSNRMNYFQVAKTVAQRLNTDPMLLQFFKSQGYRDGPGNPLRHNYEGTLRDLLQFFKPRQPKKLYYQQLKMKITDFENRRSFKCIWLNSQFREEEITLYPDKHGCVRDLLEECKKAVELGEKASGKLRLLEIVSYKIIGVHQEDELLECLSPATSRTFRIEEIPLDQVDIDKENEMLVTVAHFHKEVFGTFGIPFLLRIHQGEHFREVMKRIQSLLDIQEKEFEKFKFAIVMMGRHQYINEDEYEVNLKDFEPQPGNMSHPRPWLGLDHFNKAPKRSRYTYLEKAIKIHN

The test concerns the target USP7 (Homo sapiens (Human), UniProt Q93009). The test is described as follows: USP7 Assay B (Ubitquin-Rhodamine110 Assay). The test is classed as biochemical. Particulars: Ub-Rh110 substrate 25 nM.
Broadly, the IC50 is the concentration at which inhibition is half-maximal. Turning to `O=C(Nc1cccc(F)c1)Nc1cc2c(=O)n(CC3(O)CCN(C(=O)C4CC4)CC3)cnn2c1` [Compound I-96, 1-(3-((1-(cyclopropanecarbonyl)-4-hydroxypiperidin-4-yl)methyl)-4-oxo-3,4-dihydropyrrolo[2,1-f][1,2,4]triazin-6-yl)-3-(3-fluorophenyl)urea], the concentration for half-maximal inhibition (IC50) is over 10 µM. Under `O=C(c1ccc(-c2ccc(C(=O)N3CCC(O)(Cn4cnn5cccc5c4=O)CC3)cc2)cc1)N1CCCC1` [Compound I-39, 3-((4-hydroxy-1-(4′-(pyrrolidine-1-carbonyl)-[1,1′-biphenyl]-4-carbonyl)piperidin-4-yl)methyl)pyrrolo[2,1-f][1,2,4]triazin-4(3H)-one] stands 1 to 10 µM; under `O=C(c1ccc(-c2ccccc2)cc1Cl)N1CCC(O)(Cn2cnn3cccc3c2=O)CC1` [Compound I-50, 3-((1-(3-chloro-[1,1′-biphenyl]-4-carbonyl)-4-hydroxypiperidin-4-yl)methyl)pyrrolo[2,1-f][1,2,4]triazin-4(3H)-one], over 10 µM; under `Cc1ccc2c(=O)n(CC3(O)CCN(C(=O)C(C)Cc4ccccc4)CC3)cnn12` (stereo not drawn) [Compound I-77, 3-((4-hydroxy-1-(2-methyl-3-phenylpropanoyl)piperidin-4-yl)methyl)-7-methylpyrrolo[2,1-f][1,2,4]triazin-4(3H)-one], 1 to 10 µM. Turning to `O=C(Nc1cc2c(=O)n(CC3(O)CCN(C(=O)C4CC4)CC3)cnn2c1)c1ccccc1OC(F)(F)F` [Compound I-110, N-(3-((1-(cyclopropanecarbonyl)-4-hydroxypiperidin-4-yl)methyl)-4-oxo-3,4-dihydropyrrolo[2,1-f][1,2,4]triazin-6-yl)-2-(trifluoromethoxy)benzamide], the IC50 was over 10 µM. `O=C(NCc1ccc(Cl)cc1)Nc1cc2c(=O)n(CC3(O)CCN(C(=O)C4CC4)CC3)cnn2c1` [Compound I-91, 1-(4-chlorobenzyl)-3-(3-((1-(cyclopropanecarbonyl)-4-hydroxypiperidin-4-yl)methyl)-4-oxo-3,4-dihydropyrrolo[2,1-f][1,2,4]triazin-6-yl)urea] had an IC50 of over 10 µM. To `C[C@H](CC(=O)N1CCC(O)(Cn2cnn3cccc3c2=O)CC1)c1ccccc1` [Compound I-56, (R)-3-((4-hydroxy-1-(3-phenylbutanoyl)piperidin-4-yl)methyl)pyrrolo[2,1-f][1,2,4]triazin-4(3H)-one] belongs under 0.2 µM; to `CS(=O)(=O)c1ccc(N2CCN(C(=O)N3CCC(O)(Cn4cnn5cccc5c4=O)CC3)CC2)cc1` [Compound I-74, 3-((4-hydroxy-1-(4-(4-(methylsulfonyl)phenyl)piperazine-1-carbonyl)piperidin-4-yl)methyl)pyrrolo[2,1-f][1,2,4]triazin-4(3H)-one], over 10 µM. To `O=C(c1ccccc1-c1ccccc1)N1CCC(O)(Cn2cnn3cccc3c2=O)CC1` [Compound I-2, 3-((1-([1,1′-biphenyl]-2-carbonyl)-4-hydroxypiperidin-4-yl)methyl)pyrrolo[2,1-f][1,2,4]triazin-4(3H)-one] belongs over 10 µM; to `Cc1cc(C(F)(F)F)nn1Cc1ccc(C(=O)N2CCC(O)(Cn3cnn4cccc4c3=O)CC2)cc1` [Compound I-67, 3-((4-hydroxy-1-(4-((5-methyl-3-(trifluoromethyl)-1H-pyrazol-1-yl)methyl)benzoyl)piperidin-4-yl)methyl)pyrrolo[2,1-f][1,2,4]triazin-4(3H)-one], 1 to 10 µM. Compound `Cc1ccc2cc(-c3ccc(C(=O)N4CCC(O)(Cn5cnn6cccc6c5=O)CC4)cc3)ccc2n1` [Compound I-45, 3-((4-hydroxy-1-(4-(2-methylquinolin-6-yl)benzoyl)piperidin-4-yl)methyl)pyrrolo[2,1-f][1,2,4]triazin-4(3H)-one] yielded an IC50 of 1 to 10 µM. Under `COc1cccc(-c2cccc(C(=O)N3CCC(O)(Cn4cnn5cccc5c4=O)CC3)c2)c1` [Compound I-10, 3-((4-hydroxy-1-(3′-methoxy-[1,1′-biphenyl]-3-carbonyl)piperidin-4-yl)methyl)pyrrolo[2,1-f][1,2,4]triazin-4(3H)-one] stands over 10 µM. Under `CC(CC(=O)N1CCC(O)(Cn2cnn3cccc3c2=O)CC1)c1ccccc1` (stereo not drawn) [Compound I-1, 3-((4-hydroxy-1-(3-phenylbutanoyl)piperidin-4-yl)methyl)pyrrolo[2,1-f][1,2,4]triazin-4(3H)-one] stands 0.2 to 1 µM. `O=C(c1cccc(-c2ccc3nccn3c2)c1)N1CCC(O)(Cn2cnn3cccc3c2=O)CC1` [Compound I-22, 3-((4-hydroxy-1-(3-(imidazo[1,2-a]pyridin-6-yl)benzoyl)piperidin-4-yl)methyl)pyrrolo[2,1-f][1,2,4]triazin-4(3H)-one]: the IC50 is over 10 µM. Under `CC(CC(=O)Nc1cc2c(=O)n(CC3(O)CCN(C(=O)C4CC4)CC3)cnn2c1)c1ccc(Cl)cc1` (stereo not drawn) [Compound I-113, 3-(4-chlorophenyl)-N-(3-((1-(cyclopropanecarbonyl)-4-hydroxypiperidin-4-yl)methyl)-4-oxo-3,4-dihydropyrrolo[2,1-f][1,2,4]triazin-6-yl)butanamide] stands over 10 µM; under `O=C(c1ccc(-c2cnc3ccccc3c2)cc1)N1CCC(O)(Cn2cnn3cccc3c2=O)CC1` [Compound I-42, 3-((4-hydroxy-1-(4-(quinolin-3-yl)benzoyl)piperidin-4-yl)methyl)pyrrolo[2,1-f][1,2,4]triazin-4(3H)-one], 1 to 10 µM. Under `N#Cc1ccccc1-c1cccc(C(=O)N2CCC(O)(Cn3cnn4cccc4c3=O)CC2)c1` [Compound I-18, 3′-(4-hydroxy-4-((4-oxopyrrolo[2,1-f][1,2,4]triazin-3(4H)-yl)methyl)piperidine-1-carbonyl)-[1,1′-biphenyl]-2-carbonitrile] stands over 10 µM; under `O=C(Nc1cc2c(=O)n(CC3(O)CCN(C(=O)C4CC4)CC3)cnn2c1)c1ccc(C(F)(F)F)cc1` [Compound I-102, N-(3-((1-(cyclopropanecarbonyl)-4-hydroxypiperidin-4-yl)methyl)-4-oxo-3,4-dihydropyrrolo[2,1-f][1,2,4]triazin-6-yl)-4-(trifluoromethyl)benzamide], over 10 µM; under `CC(C)(C#N)c1ccc(C(=O)N2CCC(O)(Cn3cnn4cccc4c3=O)CC2)cc1` [Compound I-31, 2-(4-(4-hydroxy-4-((4-oxopyrrolo[2,1-f][1,2,4]triazin-3(4H)-yl)methyl)piperidine-1-carbonyl)phenyl)-2-methylpropanenitrile], over 10 µM. Under `CCC(Cc1ccccc1)C(=O)N1CCC(O)(Cn2cnn3cccc3c2=O)CC1` (stereo not drawn) [Compound I-60, 3-((1-(2-benzylbutanoyl)-4-hydroxypiperidin-4-yl)methyl)pyrrolo[2,1-f][1,2,4]triazin-4(3H)-one] stands 1 to 10 µM. On to `Cc1ccc(-c2cccc(C(=O)N3CCC(O)(Cn4cnn5cccc5c4=O)CC3)c2)cc1` [Compound I-7, 3-((4-hydroxy-1-(4′-methyl-[1,1′-biphenyl]-3-carbonyl)piperidin-4-yl)methyl)pyrrolo[2,1-f][1,2,4]triazin-4(3H)-one], for which the IC50 fell in the range of 1 to 10 µM.

On to `O=C(c1ccc(Sc2ccccc2)cc1)N1CCC(O)(Cn2cnn3cccc3c2=O)CC1` [Compound I-62, 3-((4-hydroxy-1-(4-(phenylthio)benzoyl)piperidin-4-yl)methyl)pyrrolo[2,1-f][1,2,4]triazin-4(3H)-one], for which the IC50 is 1 to 10 µM. To “3-((1-(3-(1H-pyrazol-1-yl)butanoyl)-4-hydroxypiperidin-4-yl)methyl)pyrrolo[2,1-f][1,2,4]triazin-4(3H)-one [Compound I-34]” belongs over 10 µM. Under `N#CC(Cc1ccccc1)C(=O)N1CCC(O)(Cn2cnn3cccc3c2=O)CC1` (stereo not drawn) [Compound I-54, 2-benzyl-3-(4-hydroxy-4-((4-oxopyrrolo[2,1-f][1,2,4]triazin-3(4H)-yl)methyl)piperidin-1-yl)-3-oxopropanenitrile] stands over 10 µM; under `O=C(Nc1cc(F)cc(F)c1)Nc1cc2c(=O)n(CC3(O)CCN(C(=O)C4CC4)CC3)cnn2c1` [Compound I-93, 1-(3-((1-(cyclopropanecarbonyl)-4-hydroxypiperidin-4-yl)methyl)-4-oxo-3,4-dihydropyrrolo[2,1-f][1,2,4]triazin-6-yl)-3-(3,5-difluorophenyl)urea], over 10 µM; under `CC(C)c1ccc(-c2cccc(C(=O)N3CCC(O)(Cn4cnn5cccc5c4=O)CC3)c2)cc1` [Compound I-14, 3-((4-hydroxy-1-(4′-isopropyl-[1,1′-biphenyl]-3-carbonyl)piperidin-4-yl)methyl)pyrrolo[2,1-f][1,2,4]triazin-4(3H)-one], over 10 µM.

The compound `CN(C)C(=O)c1ccc(-c2ccc(C(=O)N3CCC(O)(Cn4cnn5cccc5c4=O)CC3)c(Cl)c2)cc1` [Compound I-78, 3′-chloro-4′-(4-hydroxy-4-((4-oxopyrrolo[2,1-f][1,2,4]triazin-3(4H)-yl)methyl)piperidine-1-carbonyl)-N,N-dimethyl-[1,1′-biphenyl]-4-carboxamide] showed an IC50 of over 10 µM. To `Cc1ccc(CNC(=O)Nc2cc3c(=O)n(CC4(O)CCN(C(=O)C5CC5)CC4)cnn3c2)cc1` [Compound I-92, 1-(3-((1-(cyclopropanecarbonyl)-4-hydroxypiperidin-4-yl)methyl)-4-oxo-3,4-dihydropyrrolo[2,1-f][1,2,4]triazin-6-yl)-3-(4-methylbenzyl)urea] belongs over 10 µM. To `CN(C)C(=O)c1ccc(-c2ccc(C(=O)N3CCC(O)(Cn4cnn5cccc5c4=O)CC3)cc2)cc1` [Compound I-38, 4′-(4-hydroxy-4-((4-oxopyrrolo[2,1-f][1,2,4]triazin-3(4H)-yl)methyl)piperidine-1-carbonyl)-N,N-dimethyl-[1,1′-biphenyl]-4-carboxamide] belongs 1 to 10 µM; to `Cc1cccc(NC(=O)Nc2cc3c(=O)n(CC4(O)CCN(C(=O)C5CC5)CC4)cnn3c2)c1C` [Compound I-98, 1-(3-((1-(cyclopropanecarbonyl)-4-hydroxypiperidin-4-yl)methyl)-4-oxo-3,4-dihydropyrrolo[2,1-f][1,2,4]triazin-6-yl)-3-(2,3-dimethylphenyl)urea], over 10 µM.
